The values below come from patent US12390449B2, “Substituted 2-aminobenzimidazoles analogs as antibiofilm agents” (priority 2018, dated 2025).

SMILES strings stand for the structures. Entries after “also recorded” stand apart in the source; their conditions may differ. Where a name gives a salt, the structure may show the parent alone. Read-outs that look alike come from different tables or passages of the source.

Data set [1] relates to Salmonella typhimurium ATCC14028 Biofilms. Description: Inhibitory effect of test compounds on Salmonella typhimurium ATCC14028 biofilms (crystal violet, 96-well). Format: cell-based. As to the method:
Procedure to Determine the Inhibitory Effect of Test Compounds on Salmonella typhimurium ATCC14028 Biofilms: […] Stock solutions of predetermined concentrations of the test compounds were then made in 1 mL of bacterial culture. […] Sample plates were then incubated for 24 h at 30° C. After incubation, the medium was discarded from the wells and the plates were washed thoroughly with water. Plates were then stained with 110 μL of 0.1% solution of crystal violet (CV) and then incubated at ambient temperature for 30 min. Plates were washed with water again and the remaining stain was solubilized with 200 μL of 95% ethanol. A sample of 125 μL of solubilized CV stain from each well was transferred to the corresponding wells of a polystyrene microtiter dish. Biofilm inhibition was quantitated by measuring the OD540 of each well in which a negative control lane wherein no biofilm was formed served as a background and was subtracted out.

Data set [2] relates to Galleria mellonella larvae. Description: Toxicity assay in Galleria mellonella larvae. It counts as in vivo. The note with it: 400 mg kg^−1. The procedure:
FIGS. 5A-5B show representative toxicity data obtained for a representative disclosed compound. […] Briefly, S. typhimurium (JSG210) was grown in the presence of a representative disclosed compound, compound M4, present at a concentration of 10 μM for 24 hours, followed by determination of viability measured by drip plating at T=0, 2, 5, 15, 20, 24 hours. 3 biological replicates were tested. […] Briefly, a representative disclosed compound, compound M4, was injected into last left proleg of Galleria mellonella larvae at 400 mg/kg and assessed at 24-hour intervals over 5 days. The study was repeated 3 times using 10 larvae per experiment group.
Toxicity was measured by drip plating and counting cfu/mL.

Data set [3] deals with S. typhimurium ATCC 14028. As to the kind of experiment: Growth curves, planktonic bacterial growth. Format: cell-based. As to conditions: at their IC50 values; hydrochloride. The procedure: Growth Curves: S. typhimurium was grown overnight in TSB, and this culture was used to inoculate fresh 1:20 TSB (OD600=0.08). Inoculated medium was aliquoted (3 mL) into culture tubes, and compound was added, with untreated inoculated medium serving as the control. Tubes were incubated at 30° C. with shaking. Samples were taken at 2, 4, 6, 8, and 24 h time points, serially diluted in fresh 1:20 TSB, and plated on nutrient agar. Plates were incubated at 37° C. overnight in stationary conditions, and the number of colonies was enumerated.

Setting [4] is: Salmonella enterica, 24 h, read-out: IC50 (μM), inhibition of biofilm formation, S. typhimurium ATCC14028, 24 h at 30° C., crystal violet OD540.
[5] abbreviates: read-out: IC50 (μM), inhibition of biofilm formation, S. typhimurium ATCC14028, 24 h at 30° C., crystal violet OD540, hydrochloride.

For orientation: IC50 means the concentration that inhibits the measured activity by half.

For `Cl.Nc1nc2cc(NC(=O)c3ccc(Cl)c(Cl)c3)ccc2n1CCCc1ccccc1` [Compound 10d, N-(2-Amino-1-(3-phenylpropyl)-1H-benzo[d]imidazol-5-yl)-3,4-dichlorobenzamide hydrochloride], the half-maximal inhibitory concentration (IC50) in data set [1] (setting [4]) was < 7 µM; in data set [1] (setting [5]), 6.3 ± 1.29 µM; in data set [1] (read-out: IC50 (μM), inhibition of biofilm formation, S. typhimurium ATCC14028, 24 h at 30° C., crystal violet OD540, listed as 15d, hydrochloride), 6.3 ± 1.29 µM. In addition, the “toxicity to G. mellonella” value in data set [2] was “no toxicity”.

Regarding `Cl.Nc1nc2cc(NC(=O)Nc3ccc(Cl)c(Cl)c3)ccc2n1CCCc1ccccc1` [Compound 20, 1-(2-Amino-1-(3-phenylpropyl)-1H-benzo[d]imidazol-5-yl)-3-(3,4-dichlorophenyl)urea hydrochloride], in data set [1] (setting [4]), the concentration for half-maximal inhibition (IC50) was 7.69 ± 0.25 µM. The “toxicity to planktonic bacterial growth” value in data set [3] was “no toxicity; also recorded: non-toxic”.

On to `Cl.Nc1nc2cc(NC(=O)c3cc(Cl)cc(Cl)c3)ccc2n1CCCc1ccccc1` [Compound 10e, N-(2-Amino-1-(3-phenylpropyl)-1H-benzo[d]imidazol-5-yl)-3,5-dichlorobenzamide hydrochloride], for which the IC50 is 10 to 15 µM in data set [1] (setting [4]) and 13.3 ± 0.49 µM in data set [1] (setting [5]). For the same compound, in data set [2], the “toxicity to G. mellonella” value is given as “no toxicity”.

Turning to `CCCCCOc1ccc(C(=O)Nc2ccc3c(c2)nc(N)n3CCCc2ccccc2)cc1.Cl` [Compound 10a, N-(2-Amino-1-(3-phenylpropyl)-1H-benzo[d]imidazol-5-yl)-4-pentoxybenzamide hydrochloride], in data set [1] (setting [4]), the IC50 came out at 5.22 ± 0.11 µM. Besides, the “toxicity to planktonic bacterial growth” value in data set [3] was “no toxicity; also recorded: non-toxic”.

`CCCCCc1ccc(C(=O)Nc2ccc3nc(N)n(CCCC)c3c2)cc1` [Compound 9a, N-(2-Amino-1-butyl-1H-benzo[d]imidazol-6-yl)-4-pentylbenzamide hydrochloride]: in data set [1] (setting [4]), the concentration for half-maximal inhibition (IC50) lay within 10 to 15 µM.

On to `CCCCCCC(=O)Nc1ccc2c(c1)nc(N)n2CCCc1ccccc1` [Compound 10p, N-(2-Amino-1-(3-phenylpropyl)-1H-benzo[d]imidazol-5-yl)heptanamide hydrochloride], for which the IC50 in data set [1] (setting [4]) was in the range of 20 to 40 µM.

For `CCCCCc1ccc(C(=O)Nc2ccc3nc(N)n(CC)c3c2)cc1` [Compound 9d, N-(2-Amino-1-ethyl-1H-benzo[d]imidazol-6-yl)-4-pentylbenzamide hydrochloride], the IC50 in data set [1] (setting [4]) lay within 20 to 40 µM.

For the compound `CCCCCCCCCCC(=O)Nc1ccc2c(c1)nc(N)n2CCCc1ccccc1` [Compound 10i, N-(2-Amino-1-(3-phenylpropyI)-1H-benzo[d]imidazol-5-yhundecanamide hydrochloride], the IC50 in data set [1] (read-out: IC50 (μM), inhibition of biofilm formation, S. typhimurium ATCC14028, 24 h at 30° C., crystal violet OD540) fell in the range of 10 to 15 µM.

As to `CCCCCCc1ccc(C(=O)Nc2ccc3c(c2)nc(N)n3CCCc2ccccc2)cc1` [Compound 10l, N-(2-Amino-1-(3-phenylpropyl)-1H-benzo[d]imidazol-5-yl)-4-hexylbenzamide hydrochloride], the IC50 in data set [1] (setting [4]) lay in the range of 15 to 20 µM.
